Entries after “also recorded” stand apart in the source; their conditions may differ. Starred links: 1 amine or outer side, 2 acyl side, 3 side chain; linkers in the order of their positions; H or OH if unused. Non-standard residues stand in square brackets, D forms with d. Residues, ends and D or L forms follow the SMILES beside them. Groups on a side chain read outwards from the residue. No end group written: not given here. *: point of attachment. miniPEG = miniature polyethylene glycol spacer (mPEG); C18 diacid = O=C(O)CCCCCCCCCCCCCCCCC(=O)*; γGlu = O=C(O)[C@H](CCC(=O)[*:2])N[*:1]; Palmitoyl = CCCCCCCCCCCCCCCC(=O)*; pGlu = O=C1CC[C@@H](C(=O)O)N1
How the values were obtained:
[1] = target: T1, GLP-1R (Homo sapiens, UniProt P43220); assay: IC50 nM; set-up: host or cells: HEK 293; conditions: read-out: IC50
Protocol: Table printed on a drawing sheet, Fig. 10
Head of the field: IC50 nM
Where the first naming reader finds the target: description_of_the_figure: as measured in an in vitro assay using GLP-1R over-expressing 293 cells
Target sequence in this assay (P43220 24-463 limits assumed): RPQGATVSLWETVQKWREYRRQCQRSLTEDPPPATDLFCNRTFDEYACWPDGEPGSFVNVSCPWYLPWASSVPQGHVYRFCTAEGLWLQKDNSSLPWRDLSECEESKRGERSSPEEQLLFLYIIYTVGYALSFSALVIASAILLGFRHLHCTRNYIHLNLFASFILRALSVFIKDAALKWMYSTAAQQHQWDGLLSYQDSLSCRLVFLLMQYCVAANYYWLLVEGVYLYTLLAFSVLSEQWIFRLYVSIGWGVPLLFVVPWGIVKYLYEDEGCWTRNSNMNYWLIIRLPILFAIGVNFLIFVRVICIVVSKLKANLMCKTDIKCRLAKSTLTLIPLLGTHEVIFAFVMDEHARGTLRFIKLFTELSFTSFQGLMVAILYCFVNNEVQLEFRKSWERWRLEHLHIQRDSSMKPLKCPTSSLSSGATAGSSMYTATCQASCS

[2] = tested on: mice; assay: Glucose tolerance test after subcutaneous GLP-1 antagonist; format: in vivo; conditions: s.c. antagonist, 4 h later i.p. glucose 1.5 g/kg, FIGS. 2A, 2B
Protocol: FIGS. 2A & 2B present data from a glucose tolerance test wherein mice are subcutaneously administered the GLP-1 antagonist followed four hours later by intraperitoneal administration of glucose (1.5 g glucose per kg body weight).
C57Bl/6 mice were obtained from Jackson Laboratories. Mice were single-or group-housed on a 12:12 h light-dark cycle at 22° C. with free access to food and water. All studies were approved by and performed according to the guidelines of the Institutional Animal Care and Use Committee of the University of Cincinnati.
For the determination of glucose tolerance, mice were subjected to 6 h of fasting and injected intraperitoneally with glucose. Injections consisted of 1.5 g glucose per kg body weight (25% w/v D-glucose (Sigma) in 0.9% w/v saline). Tail blood glucose levels (mg dL-1) were measured using a hand-held glucometer (FreeStyle Freedom Lite) before 0 min and at 15, 30, 60, and 120 min after injection.
Mice received a subcutaneous injection of peptide (in PBS) either 1, 4, 8, 24, 48, 72, or 120 at varying doses before being challenged with an IP injection of dipeptidyl peptidase-IV-protected Ex-4 (0.65 nmol kg-1). A GTT was performed fifteen minutes after the GLP-1 injection. Tail blood glucose values were obtained as described above.

[3] = target: T1, GLP-1R; conditions: after site-specific acylation of the human-based antagonist; cited from earlier work
Target sequence in this assay (P43220 24-463, species assumed): as the sequence (P43220 24-463 limits assumed) above

[4] = target: T2, GIP receptor (Homo sapiens, UniProt P48546); conditions: GLP-1 receptor versus GIP receptor; cited from earlier work
T2 sequence (P48546 22-466): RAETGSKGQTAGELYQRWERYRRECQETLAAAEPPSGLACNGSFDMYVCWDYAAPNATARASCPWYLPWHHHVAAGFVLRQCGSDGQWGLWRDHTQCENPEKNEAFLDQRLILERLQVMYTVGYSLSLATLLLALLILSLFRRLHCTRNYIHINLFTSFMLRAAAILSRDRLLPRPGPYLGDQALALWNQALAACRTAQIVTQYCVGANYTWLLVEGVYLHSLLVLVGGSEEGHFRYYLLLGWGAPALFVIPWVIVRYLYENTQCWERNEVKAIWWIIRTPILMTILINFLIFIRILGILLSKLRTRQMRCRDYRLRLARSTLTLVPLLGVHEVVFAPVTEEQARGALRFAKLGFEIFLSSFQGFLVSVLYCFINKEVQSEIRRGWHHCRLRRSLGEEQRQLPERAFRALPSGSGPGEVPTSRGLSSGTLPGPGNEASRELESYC

[5] = tested on: mice; assay: Blood glucose levels in mice subcutaneously injected with GLP-1 antagonist; format: in vivo; conditions: s.c. 10, 30, 100, 300 nmol/kg, measured at 24, 48, 72 hrs, FIG. 8
From the text: over time, where X=C18-diacid and O=Lys(C18-diacid).

[6] = target: human GLP-1 receptor (human, UniProt P43220 24-463); assay: cell-based or functional assay

Molecule: CC[C@H](C)[C@H](NC(=O)[C@H](Cc1ccccc1)NC(=O)[C@H](CCC(=O)O)NC(=O)[C@H](CCCNC(=N)N)NC(=O)[C@@H](NC(=O)[C@H](C)NC(=O)[C@H](CCC(N)=O)NC(=O)[C@H](CCC(=O)O)NC(=O)[C@H](CCC(=O)O)NC(=O)[C@H](CC(C)C)NC(=O)[C@H](Cc1ccc(O)cc1)NC(=O)[C@H](CO)NC(=O)[C@H](CO)NC(=O)[C@@H](NC(=O)[C@H](CC(=O)O)NC(=O)[C@@H]1CCC(=O)N1)C(C)C)C(C)C)C(=O)N[C@@H](C)C(=O)N[C@@H](Cc1c[nH]c2ccccc12)C(=O)N[C@@H](CC(C)C)C(=O)N[C@H](C(=O)N[C@@H](CCCNC(=N)N)C(=O)NCC(=O)NCC(=O)N1CCC[C@H]1C(=O)N[C@@H](CO)C(=O)N[C@@H](CO)C(=O)NCC(=O)N[C@@H](C)C(=O)N1CCC[C@H]1C(=O)N1CCC[C@H]1C(=O)N1CCC[C@H]1C(=O)N[C@@H](CO)C(=O)N[C@@H](CCCCNC(=O)CCCCCCCCCCCCCCCCC(=O)O)C(=O)O)C(C)C [compound 1418, Z DVSSYLEEQAVREFIAWLVRGGPSSGAPPPSO-acid] ([pGlu]DVSSYLEEQAVREFIAWLVRGGPSSGAPPPSK(C18 diacid)-OH)
- IC50 [1]: 67 nM

Molecule: DVSRYLEEQAVREFIEWLVRGGPSSGAPPPSK[miniPEG-γE-C16]-OH (DVSRYLEEQAVREFIEWLVRGGPSSGAPPPSK([miniPEG-γGlu-Palmitoyl])-OH) [SEQ ID NO: 16]
- GLP-1 antagonist activity in glucose tolerance test [2]: full antagonist; also recorded: much higher potency than the GLP-1 antagonist Ex-9-40

Molecule: DVSSYLEEQAVREFIAWLVKGGPSSGAPPPSK[C16]-OH (DVSSYLEEQAVREFIAWLVKGGPSSGAPPPSK(Palmitoyl)-OH) [SEQ ID NO: 3]
- potency as a GLP-1 receptor antagonist [3]: increased potency
- selectivity relative to the GIP receptor [4]: 10 fold

Molecule: X-DVSSYLEEQAVREFIAWLVRGGPSSGAPPPSO-acid [MBX 1407]
- glucose blood levels [5]: dose dependent response

Molecule: XGDLSKQMEEEAVRLFIEWLKNGGPSSGAPPPS (dK at position 7 acylated with Peg2-gE(C16); C-terminal amide (-NH2)) [Ex9-39amide, dK7 (PEG2-γE(C16)), G8]
- IC50 (nM): block of cAMP induction by GLP-1 (0.05 nM), luciferase reporter in HEK 293 cells with human GLP-1 receptor [6]: 6.2 nM

— patent US20240058422A1, “GLUCAGON-LIKE PEPTIDE-1 RECEPTOR ANTAGONISTS” (INDIANA UNIVERSITY RESEARCH AND TECHNOLOGY CORPORATION, priority 2022, published 2024)
